Consider three molecules from patent US7691867B2, “Chemical compounds” (AstraZeneca AB, priority 2003, dated 2010).

Assay [1] relates to human tumour cell line SW620. Description: In vitro cell proliferation assay (BrdU incorporation). The class given is cell-based. The conditions noted are these: SW-620, SW620 cells, 48 hours with compound, BrdU incorporation over 2 hour labelling period, read-out: 50% inhibition of enzyme activity at a concentration of. The source says: (c) In Vitro cell Proliferation Assay
This and other assays can be used to determine the ability of a test compound to inhibit the growth of adherent mammalian cell lines, for example the human tumour cell line SW620 (ATCC CCL-227). This assay determines the ability of at test compound to inhibit the incorporation of the thymidine analogue, 5′-bromo-2′-deoxy-uridine (BrdU) into cellular DNA. SW620 or other adherent cells were typically seeded at 1×10^5 cells per well in L-15 media (GIBCO) plus 5% foetal calf serum, 1% L-glutamine (100 μl /well) in 96 well tissue culture treated 96 well plates (Costar) and allowed to adhere overnight. The following day the cells were dosed with compound (diluted from 10 mM stock in DMSO using L-15 (with 5% FCS, 1% L-glutamine). Untreated control wells and wells containing a compound known to give 100% inhibition of BrdU incorporation were included on each plate. After 48 hours in the presence/absence of test compound the ability of the cells to incorporate BrdU over a 2 hour labelling period was determined using a Boehringer (Roche) Cell Proliferation BrdU EUSA kit (cat. No. 1 647 229) according to manufacturers directions. Briefly, 15 μl of BrdU labelling reagent (diluted 1:100 in media—L-15, 5% FCS, 1% L-glutamine) was added to each well and the plate returned to a humidified (+5% CO2) 37° C. incubator for 2 hours. After 2 hours the labelling reagent was removed by decanting and tapping the plate on a paper towel. FixDenat solution (50 μl per well) was added and the plates incubated at room temperature for 45 mins with shaking. The FixDenat solution was removed by decanting and tapping the inverted plate on a paper towel. The plate was then washed once with phosphate buffered saline (PBS) and 100 μl/well of Anti-BrdU-POD antibody solution (diluted 1:100 in antibody dilution buffer) added. The plate was then incubated at room temperature with shaking for 90 min. […] The optical density of the wells was then determined at 690 nm wavelength using a Titertek Multiscan plate reader. […]
For orientation: Incorporation of labelled thymidine or its analogues reports DNA synthesis.

Another assay addresses T1, Aurora-A kinase (Homo sapiens, UniProt O14965).
T1 sequence (O14965 1-403): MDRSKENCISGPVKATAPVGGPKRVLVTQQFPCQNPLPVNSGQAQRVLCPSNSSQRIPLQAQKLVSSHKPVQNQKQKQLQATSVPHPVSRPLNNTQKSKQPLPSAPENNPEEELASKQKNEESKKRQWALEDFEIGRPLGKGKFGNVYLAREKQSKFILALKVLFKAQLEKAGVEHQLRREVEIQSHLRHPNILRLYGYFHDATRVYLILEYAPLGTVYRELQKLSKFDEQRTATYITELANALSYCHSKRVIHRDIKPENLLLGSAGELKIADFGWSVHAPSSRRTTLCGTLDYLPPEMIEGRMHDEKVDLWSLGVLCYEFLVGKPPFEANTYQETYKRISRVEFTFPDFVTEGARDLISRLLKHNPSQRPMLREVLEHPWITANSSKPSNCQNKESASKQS
Description: In vitro Aurora-A kinase inhibition test. The class given is biochemical.

Another assay concerns SW620 cells. Description: In vitro cell cycle analysis assay. The class given is cell-based. The conditions noted are these: Homo sapiens, SW-620, 24 hours with compound, DNA content by FACS, read-out: 50% inhibition of enzyme activity at a concentration of. The protocol:
(d) In Vitro Cell Cycle Analysis Assay
This assay determines the ability of a test compound to arrest cells in specific phases of the cell cycle. Many different mammalian cell lines could be used in this assay and SW620 cells are included here as an example. SW620 cells were seeded at 7×10^5 cells per T25 flask (Costar) in 5 ml L-15 (5% FCS, 1% L-glutamine). Flasks were then incubated overnight in a humidified 37° C. incubator with 5% CO2. The following day, 5 μl of L-15 (5% FCS, 1% L-glutamine) carrying the appropriate concentration of test compound solubilised in DMSO was added to the flask. A no compound control treatment was also included (0.5% DMSO). The cells were then incubated for a defined time (24 hours) with compound. After this time the media was aspirated from the cells and they were washed with 5 ml of prewarmed (37° C.) sterile PBSA, then detached from the flask by brief incubation with trypsin and followed by resuspension in 5 ml of 1% Bovine Serum Albumin (BSA, Sigma-Aldrich Co.) in sterile PBSA. The samples were then centrifuged at 2200 rpm for 10 min. The supernatant was aspirated to leave 200 μl of the PBS/BSA solution. The pellet was resuspended in this 200 μl of solution by pipetting 10 times to create a single cell suspension. One ml of ice-cold 80% ethanol was slowly added to each cell suspension and the samples stored at −20° C. overnight or until required for staining. […]
Each sample was then syringed 10 times using 21-guage needle. The samples were then transferred to LPS tubes and DNA content per cell analysed by Fluorescence activated cell sorting (FACS) using a FACScan flow cytometer (Becton Dickinson). Typically 30,000 events were counted and recorded using CellQuest v1.1 software (Verity Software). Cell cycle distribution of the population was calculated using Modfit software (Verity Software) and expressed as percentage of cells with 2N (G0/G1), 2N4N (S phase) and with 4N (G2/M) DNA content.
(In general: A flow cytometer gives signals particle by particle.)

Another assay addresses Aurora-B kinase (Homo sapiens, UniProt Q96GD4). Description: In vitro Aurora-B kinase inhibition test. The class given is biochemical. The conditions noted are these: recombinant Aurora-B, peptide substrate, [γ33P]ATP, 60 minutes at room temperature; read-out: 50% inhibition of enzyme activity at a concentration of. The protocol: (b) In Vitro Aurora-B Kinase Inhibition Test
This assay determines the ability of a test compound to inhibit serine-threonine kinase activity. DNA encoding Aurora-B may be obtained by total gene synthesis or by cloning. This DNA may then be expressed in a suitable expression system to obtain polypeptide with serine-threonine kinase activity.
For the large scale expression of Aurora-B kinase activity, Sf21 insect cells were grown at 28° C. in TC100 medium supplemented with 10% foetal calf serum (Viralex) and 0.2% F68 Pluronic (Sigma) on a Wheaton roller rig at 3 r.p.m. When the cell density reached 1.2×10^6 cells ml^−1 they were infected with plaque-pure Aurora-B recombinant virus at a multiplicity of infection of 1 and harvested 48 hours later. All subsequent purification steps were performed at 4° C. Frozen insect cell pellets containing a total of 2.0×10^8 cells were thawed and diluted with lysis buffer (50 mM HEPES (N-[2-hydroxyethyl]piperazine-N′-[2-ethanesulphonic acid]) pH 7.5 at 4° C., 1 mM Na3VO4, 1 mM PMSF (phenylmethylsulphonyl fluoride), 1 mM dithiothreitol, 1 μg/ml aprotinin, 1 μg/ml pepstatin, 1 μg/ml leupeptin), using 1.0 ml per 2×10^7 cells. Lysis was achieved using a sonication homogeniser, following which the lysate was centrifuged at 41,000 g for 35 minutes. Aspirated supernatant was pumped onto a 5 mm diameter chromatography column containing 1.0 ml CM sepharose Fast Flow (Amersham Pharmacia Biotech) which had been equilibrated in lysis buffer. A baseline level of UV absorbance for the eluent was reached after washing the column with 12 ml of lysis buffer followed by 7 ml of wash buffer (50 mM HEPES pH 7.4 at 4° C., 1 mM dithiothreitol). Bound Aurora-B B protein was eluted from the column using a gradient of elution buffer (50 mM HEPES pH 7.4 at 4° C., 0.6 M NaCl, 1 mM dithiothreitol, running from 0% elution buffer to 100% elution buffer over 15 minutes at a flowrate of 0.5 ml/min). Elution fractions (1.0 ml) corresponding to the peak in UV absorbance was collected. […]

Aurora-B kinase, sequence (Q96GD4 whole entry): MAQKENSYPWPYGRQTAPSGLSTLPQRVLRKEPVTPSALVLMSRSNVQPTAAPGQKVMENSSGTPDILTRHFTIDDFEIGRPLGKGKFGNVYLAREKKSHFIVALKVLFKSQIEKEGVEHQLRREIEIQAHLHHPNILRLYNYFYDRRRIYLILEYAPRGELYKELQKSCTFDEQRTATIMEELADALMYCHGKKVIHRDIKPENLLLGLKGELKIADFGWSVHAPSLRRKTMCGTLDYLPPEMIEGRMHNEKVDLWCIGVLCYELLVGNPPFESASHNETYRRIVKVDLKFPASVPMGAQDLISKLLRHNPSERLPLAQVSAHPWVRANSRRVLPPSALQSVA

For `CCN(CCO)CCCOc1ccc2c(Nc3cnn(CC(=O)Nc4cccc(F)c4)c3)ncnc2c1` [Compound 187, 2-{4-[(7-{3-[ethyl(2-hydroxyethyl)amino]propoxy}quinazolin-4-yl)amino]-1H-pyrazol-1-yl}-N-(3-fluorophenyl)acetamide], the IC50 in assay [1] is 1 nM; against Aurora-A kinase, 500 nM; in the assay with SW620 cells, 21 nM; at Aurora-B kinase, 9 nM.
Take `COc1cc2c(Nc3cnn(CC(=O)Nc4cccc(F)c4)c3)ncnc2cc1OCCCN1CCC[C@@H]1CO` [Compound 27, N-(3-fluorophenyl)-2-{4-[(7-{3-[(2R)-2-(hydroxymethyl)pyrrolidin-1-yl]propoxy}-6-methoxyquinazolin-4-yl)amino]-1H-pyrazol-1-yl}acetamide]: the IC50 came to 10 nM in assay [1], 34 nM against Aurora-A kinase, 7 nM in the assay on SW620 cells and 5 nM on Aurora-B kinase.
For `COc1cc2c(Nc3cnn(CC(=O)Nc4cccc(F)c4F)c3)ncnc2cc1OCCCN(CCO)CC(C)C` [Compound 60, N-(2,3-difluorophenyl)-2-{4-[(7-{3-[(2-hydroxyethyl)(isobutyl)amino]propoxy}-6-methoxyquinazolin-4-yl)amino]-1H-pyrazol-1-yl}acetamide], in that order: 1 nM, 10 nM, 3 nM and 8 nM.
